According to patent US9428519B2, “Acylated derivative of homoharringtonine, preparation method therefor, and application thereof” (HANGZHOU BENSHENG PHARMACEUTICAL CO., LTD., priority 2011, dated 2016):
≈ marks a conversion by molar mass, not a printed value.

Experiments:
[1] = tested on: Kasumi-1 (acute myeloid leukemia M2 type, AML-M2); assay: MTT growth inhibition of leukemia cells, 72 h; assay type: cell-based, human; settings: for IC50 / IC90: Homo sapiens, Kasumi 1, MTT
Text: (§1) Leukemia cell lines: leukemia cell lines: K562/adr (drug-resistant, chronic myeloid leukemia, CML), NB4 (acute promyelocytic leukemia, AML), Kasumi-1 (acute myeloid leukemia M2 type, AML-M2), Jurkat (acute lymphoblastic leukemia, ALL), all of which are donated by Cancer Research Institute of Zhejiang University, China; and H9 (acute lymphoblastic leukemia, ALL), which is purchased from China Center for Type Culture Collection (CCTCC).
(§2) Reagents: The standard sample of homoharringtonine (HHT) is purchased from Taihua Natural Plant Pharmaceutical Co., Ltd., Shaanxi, China, the homoharringtonine derivatives of the present invention.
(§3) Obtaining 6000 well-growing leukemia cells and inoculating them into wells of a 96-well cell culture plate. The culture medium is the 1640 cell culture medium containing 10% fetal bovine serum. After adding the homoharringtonine derivatives of different concentrations and mixing uniformly, placing the plate in a carbon dioxide cell incubator (5% CO2) at 37° C. and incubated for 72 hours. Then the viable cell concentration is determined by the MTT method. In this experiment, the cell viability in control group (not treated with any compound) is set as 100%. On such basis, the cell viability (%) after treatment and the 50% inhibiting concentration of the compound for the leukemia cell growth at 72 hours (IC50 value of 72 hours) are calculated.

[2] = tested on: NB4 (acute promyelocytic leukemia, AML); assay: MTT growth inhibition of leukemia cells, 72 h; assay type: cell-based, human; settings: Homo sapiens, MTT
Text: as §1, §2, §3

[3] = tested on: H9 (acute lymphoblastic leukemia, ALL); assay: MTT growth inhibition of leukemia cells, 72 h; assay type: cell-based, human; settings: Homo sapiens, MTT
Text: as §1, §2, §3

[4] = tested on: K562/adr (drug-resistant, chronic myeloid leukemia, CML); assay: MTT growth inhibition of leukemia cells, 72 h; assay type: cell-based, human; settings: Homo sapiens, K562/Adr, MTT
Text: as §1, §2, §3

[5] = tested on: Jurkat (acute lymphoblastic leukemia, ALL); assay: MTT growth inhibition of leukemia cells, 72 h; assay type: cell-based, human; settings: Homo sapiens, Jurkat
Text: as §1, §2, §3

[6] = tested on: CaES-17 (esophageal cancer cell); assay: MTT growth inhibition of human solid tumor cells, 72 h; assay type: cell-based; settings: Homo sapiens, CaEs17
Procedure: (§4) Human solid tumor cell lines: Hep-2 (laryngeal carcinoma), A549 (human lung cancer), CaES-17 (esophageal cancer cell), PC-3 (prostate cancer), CNE (nasopharyngeal carcinoma cell), and SK-OV-3 (ovarian cancer cell), all of which are purchased from China Center For Type Culture Collection; RKO (human colon adenocarcinoma cell), MGC 803 (human gastric cancer cell), MG63 (osteosarcoma) and U87 MG (malignant glioma cell), all of which are purchased from Fuxiang Bio-tech Co. Ltd., Shanghai, China; PANC-1 (pancreatic cancer), Huh7 (human liver cancer cell), Becap37 (human breast cancer cell), and Hela (human cervical cancer cell), all of which are donated by Cancer Research Institute of Zhejiang University, China.
(§5) Obtaining 4000 well-growing human solid tumor cells and inoculating them into wells of a 96-well cell culture plate. The culture medium is DMEM High Glucose cell culture medium containing 10% fetal bovine serum. The plate is placed in a carbon dioxide cell incubator (5% CO2) at 37° C. and incubated for 24 hours. After adding the homoharringtonine derivatives of different concentration and mixing uniformly, the plate is placed in a carbon dioxide cell incubator (5% CO2) at 37° C. and incubated for 72 hours. Then the viable cell concentration is determined by the MTT method and the cell viability (%) after drug treatment is calculated. In this experiment, the cell viability of control group (not treated with any compound) is set as 100%.

A549 (human lung cancer) = assay: as above; assay type: cell-based; settings: Homo sapiens, A549
Procedure: as §4, §5

[7] = tested on: RKO (human colon adenocarcinoma cell); assay: as above; assay type: cell-based; settings: Homo sapiens, MTT
Procedure: as §4, §5

[8] = tested on: MGC 803 (human gastric cancer cell); assay: as above; assay type: cell-based; settings: Homo sapiens, MGC-803
Procedure: as §4, §5

PC-3 (prostate cancer) = assay: as above; assay type: cell-based; settings: Homo sapiens, MTT
Procedure: as §4, §5

MG63 (osteosarcoma) = assay: as above; assay type: cell-based; settings: Homo sapiens, MG-63, MTT
Procedure: as §4, §5

[9] = tested on: CNE (nasopharyngeal carcinoma cell); assay: as above; assay type: cell-based; settings: Homo sapiens, MTT
Procedure: as §4, §5

[10] = tested on: Huh7 (human liver cancer cell); assay: as above; assay type: cell-based; settings: Homo sapiens, Huh-7
Procedure: as §4, §5

[11] = tested on: U87 MG (malignant glioma cell); assay: as above; assay type: cell-based; settings: Homo sapiens, U-87 MG
Procedure: as §4, §5

[12] = tested on: SK-OV-3 (ovarian cancer cell); assay: as above; assay type: cell-based; settings: Homo sapiens, SK-OV-3, MTT
Procedure: as §4, §5

[13] = tested on: PANC-1 (pancreatic cancer); assay: as above; assay type: cell-based; settings: Homo sapiens, PANC-1, MTT
Procedure: as §4, §5

[14] = tested on: Hela (human cervical cancer cell); assay: as above; assay type: cell-based; settings: Homo sapiens, HeLa, MTT
Procedure: as §4, §5

[15] = tested on: Hep-2 (laryngeal carcinoma); assay: as above; assay type: cell-based; settings: Homo sapiens, HEp-2
Procedure: as §4, §5

[16] = tested on: Becap37 (human breast cancer cell); assay: as above; assay type: cell-based; settings: Homo sapiens
Procedure: as §4, §5

[17] = tested on: RPMI8226 (multiple myeloma); assay: MTT growth inhibition of multiple myeloma cells, 72 h; assay type: cell-based, human; settings: Homo sapiens, RPMI-8226, MTT
Procedure: Multiple myeloma and lymphoma cell lines: RPMI8226 (multiple myeloma), purchased from Fuxiang Bio-tech Co. Ltd., Shanghai, China.
as §3

## COC(=O)C[C@](O)(CCCC(C)(C)OC(=O)C1CC1)C(=O)O[C@@H]1C(OC)=C[C@]23CCCN2CCc2cc4c(cc2[C@H]13)OCO4 [BS-HH-062]
[1]
  IC50: 0.002 µg/mL (≈ 0.00326 µM)
  IC90: 0.005 µg/mL (≈ 0.00815 µM)
[2]
  IC50: 0.004 µg/mL (≈ 0.00652 µM)
  IC90: 0.007 µg/mL (≈ 0.0114 µM)
[3]
  IC50: 0.008 µg/mL (≈ 0.013 µM)
  IC90: 0.02 µg/mL (≈ 0.0326 µM)
[4]
  IC50: 0.06 µg/mL (≈ 0.0978 µM)
  IC90: 0.75 µg/mL (≈ 1.22 µM)
[5]
  IC50: 0.012 µg/mL (≈ 0.0196 µM)
  IC90: ≥ 16 µg/mL
[6]
  IC50: 0.058 µg/mL (≈ 0.0945 µM)
  IC90: 16 µg/mL (≈ 26.1 µM)
A549 (human lung cancer)
  IC50: 0.04 µg/mL (≈ 0.0652 µM)
  IC90: > 16 µg/mL
[7]
  IC50: 0.005 µg/mL (≈ 0.00815 µM)
  IC90: 0.025 µg/mL (≈ 0.0407 µM)
[8]
  IC50: 0.015 µg/mL (≈ 0.0244 µM)
  IC90: 0.07 µg/mL (≈ 0.114 µM)
PC-3 (prostate cancer)
  IC50: 0.11 µg/mL (≈ 0.179 µM)
  IC90: > 16 µg/mL
MG63 (osteosarcoma)
  IC50: 0.012 µg/mL (≈ 0.0196 µM)
  IC90: 0.77 µg/mL (≈ 1.25 µM)
[9]
  IC50: 0.028 µg/mL (≈ 0.0456 µM)
  IC90: > 16 µg/mL
[10]
  IC50: 0.004 µg/mL (≈ 0.00652 µM)
  IC90: 0.049 µg/mL (≈ 0.0798 µM)
[11]
  IC50: 0.02 µg/mL (≈ 0.0326 µM)
  IC90: 0.1 µg/mL (≈ 0.163 µM)
[12]
  IC50: 0.12 µg/mL (≈ 0.196 µM)
  IC90: > 16 µg/mL
[13]
  IC50: 0.044 µg/mL (≈ 0.0717 µM)
  IC90: > 16 µg/mL
[14]
  IC50: 0.026 µg/mL (≈ 0.0424 µM)
  IC90: 16 µg/mL (≈ 26.1 µM)
[15]
  IC50: 0.015 µg/mL (≈ 0.0244 µM)
  IC90: > 16 µg/mL
[16]
  IC50: 0.014 µg/mL (≈ 0.0228 µM)
  IC90: 15.6 µg/mL (≈ 25.4 µM)
[17]
  IC50: 0.007 µg/mL (≈ 0.0114 µM)
  IC90: 0.029 µg/mL (≈ 0.0473 µM)

## COC(=O)C[C@](O)(CCCC(C)(C)OC(=O)c1cccnc1Cl)C(=O)O[C@@H]1C(OC)=C[C@]23CCCN2CCc2cc4c(cc2[C@H]13)OCO4 [BS-HH-066]
[1]
  IC50: 0.0007 µg/mL (≈ 0.00102 µM)
  IC90: 0.002 µg/mL (≈ 0.00292 µM)
[1]; vs HHT
  improvement of anti-Kasumi-1 activity compared with homoharringtonine: more than 7 fold
[2]
  IC50: 0.002 µg/mL (≈ 0.00292 µM)
  IC90: 0.004 µg/mL (≈ 0.00584 µM)
[3]
  IC50: 0.003 µg/mL (≈ 0.00438 µM)
  IC90: 0.01 µg/mL (≈ 0.0146 µM)
[4]
  IC50: 0.03 µg/mL (≈ 0.0438 µM)
  IC90: 3.18 µg/mL (≈ 4.64 µM)
[5]
  IC50: 0.005 µg/mL (≈ 0.0073 µM)
  IC90: ≥ 16 µg/mL
[6]
  IC50: 0.049 µg/mL (≈ 0.0715 µM)
  IC90: 16 µg/mL (≈ 23.4 µM)
A549 (human lung cancer)
  IC50: 0.03 µg/mL (≈ 0.0438 µM)
  IC90: > 16 µg/mL
[7]
  IC50: 0.003 µg/mL (≈ 0.00438 µM)
  IC90: 0.023 µg/mL (≈ 0.0336 µM)
[8]
  IC50: 0.005 µg/mL (≈ 0.0073 µM)
  IC90: 0.052 µg/mL (≈ 0.0759 µM)
PC-3 (prostate cancer)
  IC50: 0.1 µg/mL (≈ 0.146 µM)
  IC90: > 16 µg/mL
MG63 (osteosarcoma)
  IC50: 0.0032 µg/mL (≈ 0.00467 µM)
  IC90: 0.2 µg/mL (≈ 0.292 µM)
[9]
  IC50: 0.03 µg/mL (≈ 0.0438 µM)
  IC90: > 16 µg/mL
[10]
  IC50: 0.0016 µg/mL (≈ 0.00234 µM)
  IC90: 0.023 µg/mL (≈ 0.0336 µM)
[11]
  IC50: 0.007 µg/mL (≈ 0.0102 µM)
  IC90: 0.048 µg/mL (≈ 0.0701 µM)
[12]
  IC50: 0.051 µg/mL (≈ 0.0744 µM)
  IC90: > 16 µg/mL
[13]
  IC50: 0.026 µg/mL (≈ 0.0379 µM)
  IC90: > 16 µg/mL
[14]
  IC50: 0.021 µg/mL (≈ 0.0306 µM)
  IC90: 16 µg/mL (≈ 23.4 µM)
[15]
  IC50: 0.025 µg/mL (≈ 0.0365 µM)
  IC90: > 16 µg/mL
[16]
  IC50: 0.02 µg/mL (≈ 0.0292 µM)
  IC90: 5.63 µg/mL (≈ 8.22 µM)
[17]
  IC50: 0.006 µg/mL (≈ 0.00876 µM)
  IC90: 0.033 µg/mL (≈ 0.0482 µM)
